Source: ChEMBL document CHEMBL1138930, “Discovery of novel triazole-based opioid receptor antagonists” (J Med Chem, 2006)
pKi: −log10 of the molar value.

Assays:
[1] = test system: Delta (Mus musculus) and kappa (Rattus norvegicus) opioid receptors; test: Selectivity for delta opioid receptor over kappa opioid receptor
[2] = molecular target: Kappa-type opioid receptor (Rattus norvegicus) (UniProt P34975); test: Inhibition of (-)-[9-3H]bremazocine binding to kappa opioid receptor at 10 uM
[3] = molecular target: Mu-type opioid receptor (Mus musculus) (UniProt P42866); test: Inhibition of (-)-[9-3H]bremazocine binding to mu opioid receptor at 10 uM
[4] = test system: Delta and mu opioid receptors (Mus musculus); test: Selectivity for delta opioid receptor over mu opioid receptor
[5] = molecular target: Kappa-type opioid receptor (Rattus norvegicus) (UniProt P34975); test: Inhibition of (-)-[9-3H]bremazocine binding to kappa opioid receptor expressed in HEK293 cells
[6] = molecular target: Delta-type opioid receptor (Mus musculus) (UniProt P32300); test: Inhibition of (-)-[9-3H]bremazocine binding to delta opioid receptor expressed in HEK293 cells
[7] = molecular target: Mu-type opioid receptor (Mus musculus) (UniProt P42866); test: Inhibition of (-)-[9-3H]bremazocine binding to mu opioid receptor expressed in HEK293 cells
[8] = molecular target: Delta-type opioid receptor (Mus musculus) (UniProt P32300); test: Inhibition of (-)-[9-3H]bremazocine binding to delta opioid receptor at 10 uM

Chain of Mu-type opioid receptor (Mus musculus) (P42866 whole entry, looked up): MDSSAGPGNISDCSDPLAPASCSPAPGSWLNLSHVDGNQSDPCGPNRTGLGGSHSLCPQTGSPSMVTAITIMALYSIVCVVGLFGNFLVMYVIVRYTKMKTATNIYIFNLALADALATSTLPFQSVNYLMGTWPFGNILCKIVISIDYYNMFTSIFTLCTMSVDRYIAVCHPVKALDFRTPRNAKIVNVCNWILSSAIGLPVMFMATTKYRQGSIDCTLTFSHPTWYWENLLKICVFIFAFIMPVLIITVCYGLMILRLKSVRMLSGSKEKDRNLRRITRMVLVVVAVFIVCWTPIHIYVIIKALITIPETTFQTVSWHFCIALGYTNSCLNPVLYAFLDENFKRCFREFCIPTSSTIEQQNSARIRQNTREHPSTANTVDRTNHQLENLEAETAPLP
Chain of Delta-type opioid receptor (Mus musculus) (P32300 whole entry, looked up): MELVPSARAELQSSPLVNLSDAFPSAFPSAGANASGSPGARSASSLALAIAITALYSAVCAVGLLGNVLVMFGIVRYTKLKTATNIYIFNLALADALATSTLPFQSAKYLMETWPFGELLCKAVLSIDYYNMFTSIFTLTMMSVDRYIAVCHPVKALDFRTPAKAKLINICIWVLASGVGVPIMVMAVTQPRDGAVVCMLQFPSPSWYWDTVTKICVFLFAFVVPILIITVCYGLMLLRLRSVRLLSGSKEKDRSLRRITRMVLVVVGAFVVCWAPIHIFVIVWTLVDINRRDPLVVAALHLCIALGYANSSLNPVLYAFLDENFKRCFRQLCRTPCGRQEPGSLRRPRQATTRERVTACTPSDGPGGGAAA
Chain of Kappa-type opioid receptor (Rattus norvegicus) (P34975 whole entry, looked up): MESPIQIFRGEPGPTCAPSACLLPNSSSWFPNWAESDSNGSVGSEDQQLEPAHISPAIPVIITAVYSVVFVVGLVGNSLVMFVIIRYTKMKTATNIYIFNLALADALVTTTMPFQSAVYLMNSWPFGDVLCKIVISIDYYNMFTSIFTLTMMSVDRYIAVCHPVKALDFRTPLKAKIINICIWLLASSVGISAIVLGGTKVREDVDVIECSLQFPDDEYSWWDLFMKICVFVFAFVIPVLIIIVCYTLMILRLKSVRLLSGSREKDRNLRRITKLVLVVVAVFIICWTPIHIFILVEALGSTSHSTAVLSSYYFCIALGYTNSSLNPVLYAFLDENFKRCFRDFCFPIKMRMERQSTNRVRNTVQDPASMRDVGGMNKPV

Compound | Selectivity ratio [1] | inhibition [2] | inhibition [3] | Selectivity ratio [4] | pKi [5] | pKi [6] | pKi [7] | inhibition [8]
CN(C)c1nnc(-c2cccc(-c3ccccc3)c2)n1-c1cccc(O)c1 | > 66.6 | 8% | 23% | > 66.6 | < 5.00 | 6.82 | < 5.00 | 86%
CN(C)c1nnc(-c2ccc3ccccc3c2)n1-c1cccc(O)c1 | > 20.8 | 27% | 48% | > 20.8 | < 5.00 | 6.32 | < 5.00 | 68%
CN(C)c1nnc(-c2cccc(C(C)(C)C)c2)n1-c1cccc(O)c1 |  | 6% | 19% |  | < 5.00 | 5.98 | < 5.00 | 76%
CN(C)Cc1nnc(-c2cccc(C(C)(C)C)c2)n1-c1cccc(O)c1 |  |  |  |  |  | 5.59 |  | 65%
Oc1cccc(-n2cnnc2-c2ccc3ccccc3c2)c1 | > 4.76 | 27% | 48% | > 4.76 | < 5.00 | 5.68 | < 5.00 | 68%
CC(C)(C)c1cccc(-c2nncn2-c2cccc(O)c2)c1 | 6.52 | 66% | 78% | 3.7 | 5.82 | 6.64 | 6.07 | 91%
CN(C)c1nnc(-c2ccc(-c3ccccc3)cc2)n1-c1cccc(O)c1 |  | 11% | 15% |  | < 5.00 | 6.89 | < 5.00 | 82%
CN(C)Cc1nnc(-c2ccc(C(C)(C)C)cc2)n1-c1cccc(O)c1 |  | 9% |  |  | < 5.00 |  |  | 
CN(C)c1nnc(-c2ccc(C(C)(C)C)cc2)n1-c1cccc(O)c1 | > 200 | 6% | 32% | 80 | < 5.00 | 7.30 | 5.40 | 94%
CN1CCN(c2nnc(-c3ccc(C(C)(C)C)cc3)n2-c2cccc(O)c2)CC1 |  | 12% | 5% |  | < 5.00 | < 5.00 | < 5.00 | 18%
CN(C)c1nnc(-c2ccc(C(C)(C)C)cc2)n1-c1ccc(O)cc1 |  | 21% | 8% |  | < 5.00 | < 5.00 | < 5.00 | 27%
CN(C)CCc1nnc(-c2ccc(C(C)(C)C)cc2)n1-c1cccc(O)c1 |  | 19% | 23% |  | < 5.00 | 6.05 | < 5.00 | 90%
Oc1cccc(-n2cnnc2-c2ccc(-c3ccccc3)cc2)c1 |  | 46% | 60% |  | < 5.00 | 5.82 | < 5.00 | 75%
COc1cccc(-n2cnnc2-c2cccc(C(C)(C)C)c2)c1 |  | 5% |  |  | < 5.00 |  |  | 
Oc1cccc(-n2cnnc2-c2cccc(-c3ccccc3)c2)c1 | > 71.4 | 42% | 84% | 7.14 | < 5.00 |  |  | 84%
COc1cccc(-n2cnnc2-c2ccc(C(C)(C)C)cc2)c1 |  | 8% | 9% |  | < 5.00 |  | < 5.00 | 
CC(C)(C)c1ccc(-c2nncn2-c2cccc(O)c2)cc1 |  | 16% | 16% |  | < 5.00 | 5.00 | < 5.00 | 54%
COc1cccc(-n2c(-c3ccc(C(C)(C)C)cc3)nnc2N(C)C)c1 |  | 3% | 50% |  | < 5.00 | < 5.00 | < 5.00 | 28%
